Measurements as given in patent US11505521B2 (Biothea Pharma, Inc., priority 2018, dated 2022).
Counter-ions that a name gives are not always drawn. Like-named read-outs stand apart in the source and are kept apart here.

How the values were obtained:
[1] = sublingual tablet of Example 3, 10 mg epinephrine base, receptor pH 7.4, 37° C.
Description: The in-vitro permeability of the pharmaceutical compositions of Example 3 were tested. The tests were conducted using drug transdermal diffusion test instruments (Brand Huanghai, Model No. RJY-6B), Sartorius balances (Model SQP), an INESA pH meter (Model PHS-3E), a Thermo HPLC (UltiMate 3000 System, UV Wavelength: 205 nm), and Phenomenex Luna columns (5 μm C18 (2), 4.6×250 mm). The column temperature was 40° C. and the autosampler temperature was room temperature. The injection volume was 5 μL.
(§1) Mobile Phase A was prepared by weighing 4.0 g tetramethylammonium bisulfate (MERYER, Batch No. 77957139) and 1.1 sodium 1-heptasulfonate (Admas-beta, Batch No. P1343755), and transferring the materials to a flask. 2 mL of 0.1 mol/L EDTA solution (Brand: Sinopharm Chemical Reagent Co., Ltd., Batch No. 20150410) was added to the flask and the volume was adjusted to 950 mL using water. The solution was mixed and adjusted to a pH of 3.5 with 0.1N sodium hydroxide solution (Brand: Enox, Batch No. 20161201). Mobile Phase B was prepared using methanol. The isocratic elution was used in a proportion of A/B of 85/15. The run time was 10 minutes.
The in vitro diffusion of epinephrine salts were evaluated using Franz cells with an OD of 20 mm and reservoir volume of 7 mL. Dialysis membranes (Spectra/Por® dialysis membranes with 1,000 Da MWCO) were used to simulate sublingual mucous membrane in the vitro permeability tests. The assay content of the active components was detected in receiving pools. A receptor chamber with a magnetic stirrer was filled with phosphate buffer solution (pH 7.4) as the diffusion medium. The water bath was set at 37° C., and water was circulated in the Franz cells.
Each tablet was placed at the center of the donor chamber on the membrane at T0, and 2 mL of the artificial saliva (Brand: Biomart, Brand No. GL0305) was added to facilitate tablet disintegration and dissolution. Aliquots of 1 mL were withdrawn from the receptor chamber at 10, 30, 60, 90, and 120 min. The volumes withdrawn were replenished with fresh medium. Samples were transferred to HPLC vials for HPLC analysis.

[2] = Description: The stability of the pharmaceutical compositions of Example 3 were tested. The stability studies were conducted on packaged epinephrine salts at 25° C./RH 60% and 40° C./RH 75% conditions, as well as samples without packaging and exposed to light (4500 Lux) for one month. The appearance, assay content, and related substances were examined at 5, 7, 14 and 30 days.
(§2) The assay content was tested using Sartorius balances (Model SQP), an INESA pH meter (Model PHS-3E), a Thermo HPLC (UltiMate 3000 System, UV Wavelength: 205 nm), and Phenomenex Luna columns (5 μm C18 (2), 4.6×250 mm). The column temperature was 40° C., and the autosampler temperature was room temperature. The injection volume was 5 μL.
as §1
The assay content was analyzed by dissolving 20 mg of each sample to be examined in 50 mL of Mobile Phase A (0.4 mg/mL) as assay test solution. The sample was used and tested right after it was ready and was protected from light.
as §2, with “purity” for “assay content”, “PhenomenexSynergi” for “Phenomenex Luna”, “(4” for “(5”, “Polar-RP 80 A 250×4.6” for “C18 (2), 4.6×250”, “30°” for “40°”
Mobile Phase A was prepared by weighing 1.136 g of potassium dihydrogen orthophosphate (Brand: CNW, Batch No. A1040040) and 1.74 g of dipotassium hydrogen orthophosphate (Brand: Ourchem, Batch No. 20160219) and transferring into 1000 mL of water. The pH was adjusted to 3.0±0.05 with orthophosphoric acid (Brand: Ourchem, Batch No. 4112K060). The solution was filtered through a 0.45 μm membrane and degassed. Mobile Phase B was prepared using methanol. The run time was 50 minutes.
The purity was analyzed by dissolving 10 mg of each sample to be examined in 25 mL of Mobile Phase A (0.4 mg/mL) as purity and related substance test solution. The sample was used and tested right after it was ready and was protected from light.

physchem [3] = assay: physchem
Description: (§3) The tests were conducted using Sartorius balances (Model SQP), a Thermo HPLC (UltiMate 3000 System, UV Wavelength: 205 nm), and Phenomenex Luna columns (5 μm C18 (2), 4.6×250 mm). The column temperature was 40° C. and the autosampler temperature was room temperature. The injection volume was 5 μL.
as §1, with “using ethanol.” for “using methanol.”, “was 8” for “was 10”
A standard solution was used comprising 10 mg of the standard dissolved in 10 mL of water. The test solution solutions were prepared and water was added at 25±2° C. Every 5 minutes, the solution was sonicated for 30 seconds. The dissolution was observed within 30 minutes to make sure the solution was saturated. The solution was filtered through a 0.45 μm membrane and the solution was diluted to test.

[4] = 20 mg in 20 mL water, 25° C.
Description: The tests were conducted using Sartorius balances (Model SQP) and a pH meter (Brand: INESA, Model No. PHS-3E). 20 mg of the sample was weighed and transferred into a 20 mL volumetric flask with the remainder of the volume comprising water. The solution was mixed. The pH meter was calibrated with pH 4.0 and pH 6.8 standard buffer solutions at 25° C.

physchem [5] = details: titrated with 0.1 mol/L NaOH
Description: The tests were conducted using Sartorius balances (Model SQP) and a potentiometric titrator (Brand: Methrom, Model No. 905 Titrando). 0.17 g of the sample was weighed and transferred into a 50 mL volumetric flask with the remainder of the volume comprising deonized water. The solution was mixed. The solution was titrated with a 0.1 mol/L NaOH solution using a pH indicator to indicate the end point.

physchem [6] = details: n-octanol / pH 3.47 buffer
Description: as §3
as §1, with “using ethanol.” for “using methanol.”, “was 8” for “was 10”
A hydrogen disodium phosphate solution was prepared by weighing 7.1 g of hydrogen disodium phosphate (Brand: Sinopharm Chemical Reagent Co., Ltd., Batch No. 20150910). A citric acid solution was prepared by weighing 5.25 g of hydrated citric acid (Brand: General-Reagent, Batch No. 5949-29-1) and dissolving it in 1000 mL of water. A pH 3.47 buffer solution was prepared by adjusting the pH of the hydrogen disodium phosphate solution to 3.47 with the citric acid solution. An n-octanol buffer solution was prepared by mixing 100 mL of n-octanol (Brand: Chinasun Specialty Products Co., Ltd., Batch No. 20160601) and 100 mL of the pH 3.47 buffer solution, vibrated for 24 hours, which sat for an hour to separate the n-octanol phase and the pH 3.47 buffer phase.
10 mg of the sample was dissolved in 10 mL of the saturated n-octanol solution and mixed completely. 10 mL of the saturated pH 3.47 buffer solution was added and vortexed at 3000 r/min for 1 hour. 1 mL of solution was pipetted from the n-octanol and pH 3.47 phase after an hour. A standard solution was prepared containing 1 mg/mL of the standard in diluent. An LOQ solution was prepared from about 0.1% of the standard solution. An n-octanol phase solution was diluted with 1 mL of methanol to test. The pH 3.47 phase solution was injected directly. The partition coefficient was calculated using the following formula:
[formula] wherein Co is the equilibrium concentration of solute in oil phase, and Cw is the equilibrium concentration of solute in water phase.

[7] = light 4500 Lux, under air, 5 days
[8] = light 4500 Lux, under air, 7 days
[9] = light 4500 Lux, under air, 14 days
[10] = light 4500 Lux, under air, 30 days

CNC[C@H](O)c1ccc(O)c(O)c1 [epinephrine base, epinephrine]
Diffusion content (%) 120 min [1]: 10.5%
Related substance (%) ([2]; 25° C./60% RH, 0 days): 0.13%
Content (%) ([2]; 25° C./60% RH, 5 days): 100.03%
Related substance (%) ([2]; 25° C./60% RH, 5 days): 0.14%
Content (%) ([2]; 25° C./60% RH, 7 days): 99.73%
Related substance (%) ([2]; 25° C./60% RH, 7 days): 0.14%
Content (%) ([2]; 25° C./60% RH, 14 days): 99.84%
Related substance (%) ([2]; 25° C./60% RH, 14 days): 0.12%
Content (%) ([2]; 25° C./60% RH, 30 days): 99.78%
Related substance (%) ([2]; 25° C./60% RH, 30 days): 0.14%
Related substance (%) ([2]; 40° C./75% RH, 0 days): 0.13%
Related substance (%) ([2]; 40° C./75% RH, 5 days): 0.16%
Content (%) ([2]; 40° C./75% RH, 7 days): 100.67%
Related substance (%) ([2]; 40° C./75% RH, 7 days): 0.15%
Content (%) ([2]; 40° C./75% RH, 14 days): 98.97%
Related substance (%) ([2]; 40° C./75% RH, 14 days): 0.17%
Content (%) ([2]; 40° C./75% RH, 30 days): 100.62%
Related substance (%) ([2]; 40° C./75% RH, 30 days): 0.20%
Related substance (%) ([2]; light 4500 Lux, under air, 0 days): 0.13%
Content (%) [2, 7]: 100.53%
Related substance (%) [2, 7]: 0.15%
Content (%) [2, 8]: 99.27%
Related substance (%) [2, 8]: 0.18%
Content (%) [2, 9]: 99.21%
Related substance (%) [2, 9]: 0.18%
Content (%) [2, 10]: 98.24%
Related substance (%) [2, 10]: 0.21%

epinephrine fumarate
Solubility (physchem [3]; water, 25±2° C.): 38.9 mg/mL
pH [4]: 3.77
pKa (physchem [5]): 4.28
LogP (physchem [6]): −3.00
Diffusion content (%) 120 min [1]: 54.4%

epinephrine hemi sulfate
Solubility (physchem [3]): 17.7 mg/mL
pH [4]: 7.14

CNC[C@H](O)c1ccc(O)c(O)c1 [epinephrine hydrochloride]
Diffusion content (%) 120 min ([1]; hydrochloride): 44.0%
